Results: PubChem BioAssay (NCI)
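Protocol summary: plate cells (96-well), add compound at 5 concentrations, incubate 48 h, interpolate endpoints linearly. The concentration for full growth arrest is given as TGI.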

Columns and labels:
Test in all cases: inhibition of tumour cell growth, NCI panel, 48 h
[1] = system: DMS 114 small cell lung
[2] = system: LOX IMVI melanoma
[3] = system: SF-295 CNS
[4] = system: UACC-257 melanoma
[5] = system: XF 498 CNS
[6] = system: KM12 colon
[7] = system: SN12C renal
[8] = system: SNB-75 CNS
[9] = system: OVCAR-3 ovarian
[10] = system: U251 CNS
[11] = system: IGROV1 ovarian
[12] = system: HOP-18 NSCLC
[13] = system: HT29 colon
[14] = system: SK-MEL-2 melanoma
[15] = system: SK-MEL-28 melanoma
[16] = system: HOP-62 NSCLC
[17] = system: M14 melanoma
[18] = system: TK-10 renal
[19] = system: A549 NSCLC
[20] = system: SW-620 colon
[21] = system: MALME-3M melanoma
[22] = system: 786-0 renal
[23] = system: K-562 leukemia
[24] = system: UACC-62 melanoma
[25] = system: MOLT-4 leukemia
[26] = system: RXF 393 renal
[27] = system: M19-MEL melanoma
[28] = system: OVCAR-8 ovarian
[29] = system: DLD-1 colon
[30] = system: UO-31 renal
[31] = system: RPMI-8226 leukemia
[32] = system: ACHN renal
[33] = system: NCI-H23 lung
[34] = system: CCRF-CEM leukemia
[35] = system: SF-539 CNS
[36] = system: HCT-116 colon
[37] = system: COLO 205 colon
[38] = system: HL-60(TB) leukemia
[39] = system: HCT-15 colon
[40] = system: SNB-19 CNS
[41] = system: NCI-H226 lung
[42] = system: NCI-H460 lung
[43] = system: DMS 273 small cell lung
[44] = system: SK-OV-3 ovarian
[45] = system: EKVX NSCLC
[46] = system: NCI-H522 lung
[47] = system: OVCAR-4 ovarian
[48] = system: SNB-78 CNS
[49] = system: A498 renal
[50] = system: SF-268 CNS
[51] = system: LXFL 529 NSCLC
[52] = system: CAKI-1 renal
[53] = system: RXF-631 renal
[54] = system: SK-MEL-5 melanoma
[55] = system: OVCAR-5 ovarian
[56] = system: HCC-2998 colon
[57] = system: KM20L2 colon
[58] = system: HOP-92 NSCLC

CC(=O)NC1CC2Oc3ccc(C)cc3C(C)(O2)C1O (configuration not stated)
TGI [1]: > 100 µM
TGI [2]: > 100 µM
TGI [3]: > 100 µM
TGI [4]: > 100 µM
TGI [5]: > 100 µM
TGI [6]: > 100 µM
TGI [7]: > 100 µM
TGI [8]: > 100 µM
TGI [9]: > 100 µM
TGI [10]: > 100 µM
TGI [11]: > 100 µM
TGI [12]: > 100 µM
TGI [13]: > 100 µM
TGI [14]: > 100 µM
TGI [15]: > 100 µM
TGI [16]: > 100 µM
TGI [17]: > 100 µM
TGI [18]: > 100 µM
TGI [19]: > 100 µM
TGI [20]: > 100 µM
TGI [21]: > 100 µM
TGI [22]: > 100 µM
TGI [23]: > 100 µM
TGI [24]: > 100 µM
TGI [25]: > 100 µM
TGI [26]: > 100 µM
TGI [27]: > 100 µM
TGI [28]: > 100 µM
TGI [29]: > 100 µM
TGI [30]: > 100 µM
TGI [31]: > 100 µM
TGI [32]: > 100 µM
TGI [33]: > 100 µM
TGI [34]: > 100 µM
TGI [35]: > 100 µM
TGI [36]: > 100 µM
TGI [37]: > 100 µM
TGI [38]: > 100 µM
TGI [39]: > 100 µM
TGI [40]: > 100 µM
TGI [41]: > 100 µM
TGI [42]: > 100 µM
TGI [43]: > 100 µM
TGI [44]: > 100 µM
TGI [45]: > 100 µM
TGI [46]: > 100 µM

CC1CCC(C(C)C)C(O[C@@H]2OC(=O)C[C@@H]2Sc2ccccc2)C1 (some centres not stated)
TGI [1]: 46.9 µM
TGI [2]: 26.3 µM
TGI [47]: 41.9 µM
TGI [3]: 54.6 µM
TGI [4]: 39.3 µM
TGI [6]: 54.1 µM
TGI [7]: 32 µM
TGI [8]: 98.3 µM
TGI [9]: 28.8 µM
TGI [48]: 73.1 µM
TGI [11]: > 100 µM
TGI [13]: 34.3 µM
TGI [14]: 34.9 µM
TGI [49]: 74.7 µM
TGI [15]: 85.7 µM
TGI [16]: 96 µM
TGI [17]: 59.3 µM
TGI [18]: > 100 µM
TGI [19]: 85.9 µM
TGI [20]: 39.2 µM
TGI [21]: 58.7 µM
TGI [22]: 45.9 µM
TGI [23]: 42.6 µM
TGI [24]: > 100 µM
TGI [25]: 32 µM
TGI [26]: 31.9 µM
TGI [27]: 62.1 µM
TGI [28]: 45.3 µM
TGI [29]: > 100 µM
TGI [31]: 34.7 µM
TGI [32]: 41.7 µM
TGI [33]: 96.3 µM
TGI [34]: 26.8 µM
TGI [35]: 61.8 µM
TGI [36]: 74 µM
TGI [37]: 36.8 µM
TGI [38]: 43.6 µM
TGI [39]: 59.5 µM
TGI [50]: > 100 µM
TGI [40]: > 100 µM
TGI [51]: 46.1 µM
TGI [52]: 63.6 µM
TGI [53]: 69.8 µM
TGI [54]: 30.3 µM
TGI [42]: 69.5 µM
TGI [55]: 65.5 µM
TGI [43]: 36.7 µM
TGI [44]: 91.7 µM
TGI [45]: 93.6 µM
TGI [56]: 55.9 µM

COc1cc(/C=C/C(=O)c2sc(NNC(C)=O)nc2C)ccc1O
TGI [1]: > 100 µM
TGI [2]: > 100 µM
TGI [3]: > 100 µM
TGI [4]: > 100 µM
TGI [6]: > 100 µM
TGI [7]: > 100 µM
TGI [8]: > 100 µM
TGI [9]: > 100 µM
TGI [48]: > 100 µM
TGI [10]: > 100 µM
TGI [11]: > 100 µM
TGI [57]: > 100 µM
TGI [12]: > 100 µM
TGI [13]: > 100 µM
TGI [14]: > 100 µM
TGI [49]: > 100 µM
TGI [15]: > 100 µM
TGI [16]: > 100 µM
TGI [18]: > 100 µM
TGI [19]: > 100 µM
TGI [20]: > 100 µM
TGI [21]: > 100 µM
TGI [22]: > 100 µM
TGI [23]: > 100 µM
TGI [24]: > 100 µM
TGI [25]: > 100 µM
TGI [26]: > 100 µM
TGI [28]: > 100 µM
TGI [29]: > 100 µM
TGI [30]: > 100 µM
TGI [31]: > 100 µM
TGI [32]: > 100 µM
TGI [33]: > 100 µM
TGI [34]: > 100 µM
TGI [35]: > 100 µM
TGI [37]: > 100 µM
TGI [38]: > 100 µM
TGI [39]: > 100 µM
TGI [50]: > 100 µM
TGI [58]: > 100 µM
TGI [41]: > 100 µM
TGI [52]: > 100 µM
TGI [53]: > 100 µM
TGI [54]: > 100 µM
TGI [42]: > 100 µM
TGI [55]: > 100 µM
TGI [43]: > 100 µM
TGI [44]: > 100 µM
TGI [45]: > 100 µM
TGI [56]: > 100 µM
TGI [46]: > 100 µM
